Where “and” joins values, the source holds several entries; their conditions need not be identical. Identical values can stand only once. Entries after “also recorded” stand apart in the source; their conditions may differ.
Key:
[1] = molecular target: H346A/R347A KLHDC2^SBD / BRD3^BD2 (Homo sapiens, UniProt Q15059+Q9Y2U9, H346A/R347A); assay: ITC, ternary complex H346A/R347A KLHDC2^SBD with PROTAC-BRD3^BD2
[2] = molecular target: KLHDC2^SBD / BRD4^BD2 (Homo sapiens, UniProt O60885+Q9Y2U9); assay: ITC, ternary complex KLHDC2^SBD with PROTAC-BRD4^BD2
[3] = molecular target: BRD4 (Homo sapiens, UniProt O60885); assay: Western blot of BRD4 levels after cellular dosing
[4] = tested on: CUL2^KLHDC2, CUL2^KLHDC3, CUL2^KLHDC10, CUL5^KLHDC1; assay: SJ46421-dependent BRD^BD2 ubiquitylation by KLHDC-family CRLs (E3 selectivity); details: Figs 5a, S5a
[5] = molecular target: KLHDC2^SBD / E344G BRD3^BD2 (Homo sapiens, UniProt Q15059+Q9Y2U9, E344G); assay: ITC, ternary complex KLHDC2^SBD with PROTAC-E344G BRD3^BD2
[6] = molecular target: T1, R56A KLHDC2^SBD (Homo sapiens, UniProt Q9Y2U9, R56A); assay: ITC, binary binding to R56A KLHDC2^SBD
T1 sequence (Q9Y2U9 15-361 R56A): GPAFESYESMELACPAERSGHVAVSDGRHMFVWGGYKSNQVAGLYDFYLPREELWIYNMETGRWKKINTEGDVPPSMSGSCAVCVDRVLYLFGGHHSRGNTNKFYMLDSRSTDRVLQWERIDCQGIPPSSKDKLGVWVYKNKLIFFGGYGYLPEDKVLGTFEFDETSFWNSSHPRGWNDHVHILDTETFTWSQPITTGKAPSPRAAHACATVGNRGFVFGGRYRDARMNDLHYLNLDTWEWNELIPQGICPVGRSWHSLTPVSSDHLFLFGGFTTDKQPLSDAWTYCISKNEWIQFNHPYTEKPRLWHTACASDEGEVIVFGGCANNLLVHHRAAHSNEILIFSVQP

[7] = molecular target: neddylated CRL2^KLHDC2 (tetrameric KLHDC2-EloB/C) (Homo sapiens, UniProt Q15059+Q9Y2U9); assay: Ubiquitylation assay monitoring disruption of the KLHDC2-EloBC tetrameric assembly
[8] = molecular target: neddylated CRL2^KLHDC2 (Homo sapiens, UniProt Q9Y2U9, G405K/S406K); assay: biochemical
[9] = molecular target: R56A KLHDC2^SBD / BRD3^BD2 (Homo sapiens, UniProt Q15059+Q9Y2U9, R56A); assay: ITC, ternary complex R56A KLHDC2^SBD with PROTAC-BRD3^BD2
[10] = Measurement of SJ46421 cellular concentration by LC-MS/MS; type: in vitro ADME; details: SKBR3, from LC-MS-MS of lysates
[11] = ITC source data Fig4f, N=1, syringe H346A/R347A KLHDC2, cell SJ46421-BRD3BD2
[12] = ITC, syringe H346A/R347A KLHDC2, cell compound-BRD3BD2, N=1
[13] = cell: SJ46421-BRD3^BD2, syringe: H346A/R347A KLHDC2^SBD, n=1
[14] = cell: PROTAC-BRD4^BD2, syringe: KLHDC2^SBD
[15] = cell: SJ46421-E344G BRD3^BD2, syringe: KLHDC2^SBD
[16] = cell: SJ46421, syringe: R56A KLHDC2^SBD
[17] = cell: SJ46421-BRD3^BD2, syringe: R56A KLHDC2^SBD

Chain of R56A KLHDC2^SBD / BRD3^BD2 (Q15059 306-416, one chain of several): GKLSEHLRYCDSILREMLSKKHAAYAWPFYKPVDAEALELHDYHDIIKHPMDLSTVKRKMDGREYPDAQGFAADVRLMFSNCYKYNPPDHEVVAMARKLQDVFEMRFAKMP
Chain of KLHDC2^SBD / BRD4^BD2 (Q9Y2U9 15-361, other chains not shown): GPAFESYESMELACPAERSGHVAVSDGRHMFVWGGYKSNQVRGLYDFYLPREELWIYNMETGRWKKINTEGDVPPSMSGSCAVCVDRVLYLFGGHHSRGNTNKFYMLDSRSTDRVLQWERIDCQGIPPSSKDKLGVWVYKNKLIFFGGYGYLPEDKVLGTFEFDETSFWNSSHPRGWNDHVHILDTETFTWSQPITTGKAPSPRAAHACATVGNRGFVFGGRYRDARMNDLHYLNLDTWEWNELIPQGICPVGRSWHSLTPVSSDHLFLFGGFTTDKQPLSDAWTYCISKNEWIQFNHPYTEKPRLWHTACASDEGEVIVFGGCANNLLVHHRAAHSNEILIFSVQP
Chain of KLHDC2^SBD / E344G BRD3^BD2 (Q9Y2U9 15-361): as the sequence (Q9Y2U9 15-361, other chains not shown) above
Chain of KLHDC2^SBD / E344G BRD3^BD2 (Q15059 306-416 E344G): as the sequence (Q15059 306-416, one chain of several) above, with E39G counted along it
Chain of H346A/R347A KLHDC2^SBD / BRD3^BD2 (Q9Y2U9 15-361 H346A/R347A): as the sequence (Q9Y2U9 15-361, other chains not shown) above, with H332A, R333A counted along it
Chain of H346A/R347A KLHDC2^SBD / BRD3^BD2 (Q15059 306-416, stated change not applied): as the sequence (Q15059 306-416, one chain of several) above

## Cc1sc2c(c1C)C(c1ccc(Cl)cc1)=N[C@@H](CC(=O)N1CCN(CCOc3cccc4ccc(-c5nc(CC(=O)NCC(=O)O)cs5)cc34)CC1)c1nnc(C)n1-2 [SJ46421]
[1]
  Kd: 0.0509 µM
[1]; H346A/R347A KLHDC2^SBD, estimated from the binding affinity of SJ46421 to WT KLHDC2
  cooperativity α: 6.0
[1]; [11]
  (-)TDS, Rep1: -7.83
  DG, Rep1: -10.2
  DH, Rep1: -2.36
[1]; [12]
  (-)TDS: -7.83
  DG: -10.2
  DH: -2.36
[1]; [13]
  ITC -TΔS (ternary): -7.83 kcal/mol-1
  ITC N (ternary): 0.9
  ITC ΔG (ternary): -10.2 kcal/mol-1
  ITC ΔH (ternary): -2.36 kcal/mol-1
[2]; BRD4^BD2, KLHDC2^SBD
  cooperativity α: 2.8
[2]; [14]
  ITC -TΔS (ternary): -1.51 +/- 0.11 kcal/mol-1
  ITC N (ternary): 0.8
  ITC ΔG (ternary): -9.72 +/- 0.04 kcal/mol-1
  ITC ΔH (ternary): -8.22 +/- 0.09 kcal/mol-1
[3]; Fig 6b, KO/Rescue, 5 uM
  BRD4 level, Western blot quantification (DMSO = 100): 89.649 and 113.548
[3]; Fig 6b, U2OS, 5 uM
  BRD4 level, Western blot quantification (DMSO = 100): 119.505 and 104.107
[3]; Fig S6a, 293T cells, 2.5 uM
  BRD4 level, Western blot quantification (DMSO = 100): 98.5503 and 107.435
[3]; Fig S6a, 293T cells, 5 uM
  BRD4 level, Western blot quantification (DMSO = 100): 86.1267 and 99.7257
[3]; Fig S6b, MDA-MB468 Cells, 10 uM
  BRD4 level, Western blot quantification (DMSO = 100): 94.0762 and 99.1924
[4]
  SJ46421-dependent ubiquitylation by KLHDC3, KLHDC10, and KLHDC1: poor
[5]; E344G BRD3^BD2, KLHDC2^SBD
  cooperativity α: 1.7
[5]; Kd, Rep1/Rep2, ITC source data Fig4f, syringe KLHDC2, cell SJ46421-E344GBRD3BD2
  Kd: 0.187 µM and 0.175 µM
[5]; [15]
  ITC -TΔS (ternary): -2.23 +/- 0.12 kcal/mol-1
  ITC N (ternary): 1.0
  ITC ΔG (ternary): -9.42 +/- 0.08 kcal/mol-1
  ITC ΔH (ternary): -7.19 +/- 0.05 kcal/mol-1
[6]; ITC Kd, cell: SJ46421, syringe: R56A KLHDC2^SBD
  Kd: 0.463 ± 0.015 µM
[6]; Kd, Rep1/Rep2, ITC source data Fig4f, syringe R56A KLHDC2, cell SJ46421
  Kd: 0.462 µM and 0.464 µM
[6]; [16]
  ITC -TΔS: -6.66 +/- 0.25 kcal/mol-1
  ITC N: 1.0
  ITC ΔG: -8.85 +/- 0.05 kcal/mol-1
  ITC ΔH: -1.82 +/- 0.05 kcal/mol-1
[7]; Monomer, + BRD3-SJ46421, pre-incubation 0
  KLHDC2~UB level, Rep1/Rep2: 0.5851 and 0.3857
[7]; Tetramer, + BRD3-SJ46421, pre-incubation 0
  KLHDC2~UB level, Rep1/Rep2: 67.2962 and 61.2938
[7]; Tetramer, + BRD3-SJ46421, pre-incubation 2
  KLHDC2~UB level, Rep1/Rep2: 32.2274 and 23.9384
[7]; Tetramer, + BRD3-SJ46421, pre-incubation 5
  KLHDC2~UB level, Rep1/Rep2: 1.6168 and 2.133
[8]
  IC50: 2.6 µM
[9]; BRD3^BD2, R56A KLHDC2^SBD
  cooperativity α: 1.7
[9]; Kd, Rep1/Rep2, ITC source data Fig4f, syringe R56A KLHDC2, cell SJ46421-BRD3BD2
  Kd: 0.291 µM and 0.255 µM
[9]; [17]
  ITC -TΔS (ternary): -5.02 +/- 0.31 kcal/mol-1
  ITC N (ternary): 1.1
  ITC ΔG (ternary): -9.19 +/- 0.03 kcal/mol-1
  ITC ΔH (ternary): -3.68 +/- 0.03 kcal/mol-1
[10]
  cellular permeability: poor cellular permeability; also recorded: poor permeability properties
